Legend:
[1] = target: HCB protein PPIase activity (Homo sapiens, UniProt P62942); test: PPIase assay of HCB protein (N-succinyl-Ala-Ala-Pro-Phe-p-nitroanilide, chymotrypsin coupled)
Description: (§1) Briefly, the PPIase assay measures the "cis" to "trans" isomerization of the proline-alanine peptide bond in the peptide, N-succinyl-Ala-Ala-Pro-Phe-p-nitroanilide. When in the "trans" form, the peptide is readily cleaved by chymotrypsin and the appearance of p-nitroanilide can be quantitated spectrophotometrically at 405 nm.
(§2) After 1.0 minutes, 30 ul of 2.0 mg/ml chymotrypsin (Sigma) in 100 mM Tris-HCl, pH 7.8 was added. After brief mixing, the absorbance was monitored at 405 nm in either a Perkin-Elmer 4B or Beckman DU 68 spectrophotometer. Absorbance measurements were taken at 3 or 5 second intervals for 4 minutes. A plot of Abs405 [steady state]--Abs405[time=t] versus time was made on semi-log paper. From the straight line, the time constant for Abs405 [steady state]--Abs405 [time=t] to fall by l/e was calculated. The reciprocal of this constant yields the rate constant k.

[2] = test system: cyclophilin PPIase activity; conditions: concentration of 1 uM
Description: as §1, §2

[3] = test system: low molecular weight cytosolic component; test: Direct binding of [3H]FK-506 to JURKAT cytosol, complex by HPLC gel filtration, competition with unlabeled compound; set-up: species or system human; conditions: 200 fold molar excess of unlabeled compound; 16 nM [3H]FK-506, 200 μg cytosol protein
Description: A cell-free extract was prepared from JURKAT cells by lysing […] cells in 0.5 ml of 10 mM Tris-HCl, pH 7.5 containing 1 mM MgCl as described in the legend for FIG. 3.

[4] = test system: JURKAT cytosol; test: LH-20 binding assay with JURKAT cytosol; set-up: species or system human; conditions: for Bound (cpm), specifically bound: 0.5 nM labeled compound; for effect of heating on binding to JURKAT cytosol (in words): heated cytosol
[5] = target: purified calf thymus cyclophilin (Bos taurus, UniProt P62935); test: LH-20 binding assay with purified cyclophilin; conditions: for Bound (cpm), specifically bound: cyclophilin, 100 ng, 6.0 nM labeled compound
Sequence of purified calf thymus cyclophilin (P62935 whole entry): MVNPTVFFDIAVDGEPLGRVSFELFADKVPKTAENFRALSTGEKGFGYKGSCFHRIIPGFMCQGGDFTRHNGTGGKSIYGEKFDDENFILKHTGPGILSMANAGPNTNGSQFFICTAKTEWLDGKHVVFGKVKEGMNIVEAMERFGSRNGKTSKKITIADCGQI

[6] = test system: IL-2 secretion in JURKAT cells; test: Inhibition of IL-2 secretion in JURKAT cells stimulated with PMA and ionomycin (ELISA); assay type: cell-based, human
Description: Inhibition of IL-2 secretion in JURKAT cells stimulated with PMA and ionomycin by FK-506 and [^3 H]dihydro FK-506. JURKAT cells (equivalent to those available from the ATCC, supra) were cultured in RPMI 1640 media (Cellgro, Mediatech, Wash. D.C.) containing 1% Pen/Strep (Gibco), 1 mM Glutamine and 10% heat-inactivated fetal calf serum (Hazleton). For assay of IL-2 secretion by JURKAT cells, cells were cultured for 16 hr. in 96-well microtiter plates (Costar) at […] cells/ml in the above media containing 10 ng/ml of PMA (Sigma) and 5 μM ionomycin (Calbiochem) along with the concentrations of FK-506 or [^3 H]FK-506 indicated.

[7] = target: T1, JURKAT cytosol (Homo sapiens, UniProt P62942); test: LH-20 binding assay with JURKAT cytosol
T1 construct: endogenous in cells; host or cells: JURKAT (human T-cell line), crude cytosol
T1 sequence (P62942 2-108): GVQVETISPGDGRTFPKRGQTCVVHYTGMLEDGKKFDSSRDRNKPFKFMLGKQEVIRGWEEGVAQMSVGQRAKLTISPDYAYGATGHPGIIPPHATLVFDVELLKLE

[8] = JURKAT cytosol 40 μg heated 56 C., 15 min.

Sequence of HCB protein PPIase activity (P62942 whole entry): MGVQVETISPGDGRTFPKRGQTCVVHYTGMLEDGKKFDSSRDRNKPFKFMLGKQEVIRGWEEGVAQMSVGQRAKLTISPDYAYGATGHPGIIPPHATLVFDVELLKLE

Row | Compound | inhibition of HCB protein PPIase activity (in words) [1] | inhibition of cyclophilin PPIase activity (in words) [2] | inhibition of the formation of the [^3 H]FK-506 complex [3] [%] | Bound (cpm), specifically bound [4, 8] | Bound (cpm), specifically bound ([4]; JURKAT cytosol, 40 μg) | effect of heating on binding to JURKAT cytosol (in words) [4] | Bound (cpm), specifically bound [5] | IC50 ([6]; Homo sapiens, Jurkat, 16 h, read-out: concentration of inhibiting IL-2 secretion in JURKAT) [nM] | inhibition of IL-2 secretion in JURKAT cells (in words) ([6]; PMA and ionomycin) | potency as inhibitor of IL-2 secretion, times less potent than the parent compound ([6]; relative to FK-506, JURKAT cells, PMA and ionomycin) [times] | Kd [7] [nM] | specific binding to purified calf thymus cyclophilin (in words) ([5]; LH-20 assay)
1 | C=CC[C@@H]1/C=C(\C)C[C@H](C)C[C@H](OC)[C@H]2O[C@@](O)(C(=O)C(=O)N3CCCC[C@H]3C(=O)O[C@H](/C(C)=C/[C@@H]3CC[C@@H](O)[C@H](OC)C3)[C@H](C)[C@@H](O)CC1=O)[C@H](C)C[C@@H]2OC [FK-506] | specifically inhibited | no effect | 90 | – | – | – | – | – | – | – | – | –
2 | CCC[C@@H]1/C=C(\C)C[C@H](C)C[C@H](OC)[C@H]2O[C@@](O)(C(=O)C(=O)N3CCCC[C@H]3C(=O)O[C@H](/C(C)=C/[C@@H]3CC[C@@H](O)[C@H](OC)C3)[C@H](C)[C@@H](O)CC1=O)[C@H](C)C[C@@H]2OC [Dihydro-FK-506] | specifically inhibits | – | – | – | – | – | – | – | – | – | – | –
3 | [3H]C(C)C([3H])C[C@@H](C)[C@@H](O)[C@H]1C(=O)N[C@@H](CC)C(=O)N(C)CC(=O)N(C)[C@@H](CC(C)C)C(=O)N[C@@H](C(C)C)C(=O)N(C)[C@@H](CC(C)C)C(=O)N[C@@H](C)C(=O)N[C@H](C)C(=O)N(C)[C@@H](CC(C)C)C(=O)N(C)[C@@H](CC(C)C)C(=O)N(C)[C@@H](C(C)C)C(=O)N1C (some centres unmarked) [[^3 H]CsA, [^3 H]-dihydro CsA] | – | – | – | 0 cpm | 5,988 cpm | completely aborgated | 20,988 cpm | – | – | – | – | –
4 | [3H]CC([3H])C[C@@H]1/C=C(\C)C[C@H](C)C[C@H](OC)[C@H]2O[C@@](O)(C(=O)C(=O)N3CCCC[C@H]3C(=O)O[C@H](/C(C)=C/[C@@H]3CC[C@@H](O)[C@H](OC)C3)[C@H](C)[C@@H](O)CC1=O)[C@H](C)C[C@@H]2OC (some centres unmarked) [[^3 H]FK-506, [^3 H]-dihydro FK-506] | – | – | – | 15,315 cpm | 13,585 cpm | heat stable | 0 cpm | 1.1 | potent inhibitor | 5 | 4 | could not detect specific binding
